Molecular target: T1, USP30 (ubiquitin specific protease 30) (Homo sapiens, UniProt Q70CQ3, DEL179-216/DEL288-305)
T1 construct: residues 64-502Δ179-216 and 288-305
T1 sequence (Q70CQ3 with tags, fused parts or gaps DEL179-216/DEL288-305): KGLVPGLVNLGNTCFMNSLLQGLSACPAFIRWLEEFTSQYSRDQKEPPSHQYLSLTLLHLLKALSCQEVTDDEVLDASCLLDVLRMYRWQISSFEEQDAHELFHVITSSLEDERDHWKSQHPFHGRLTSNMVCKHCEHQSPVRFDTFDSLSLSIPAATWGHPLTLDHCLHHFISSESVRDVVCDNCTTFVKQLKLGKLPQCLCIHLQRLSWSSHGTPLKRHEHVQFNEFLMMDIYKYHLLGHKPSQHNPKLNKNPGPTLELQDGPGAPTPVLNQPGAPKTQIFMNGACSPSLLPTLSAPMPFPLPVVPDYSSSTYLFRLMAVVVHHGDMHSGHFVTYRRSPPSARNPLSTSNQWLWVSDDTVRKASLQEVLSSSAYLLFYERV
Test: RapidFire MS of covalent complex and HDX-MS on recombinant USP30; KI from kinact/KI kinetics with Ub-rhodamine (IC50 […] after […] min preincubation; […] in SH-SY5Y lysate ABPP)
Type: biochemical

Structure (SMILES): C[C@@H]1C[C@@H](NC(=O)c2ncc(-c3cccc(C#N)c3)o2)CN1C#N [USP30-I-1]
- KI (inactivation): ~350 nM

From publication PMC11812085, “Structural Dynamics of the Ubiquitin Specific Protease USP30 in Complex with a Cyanopyrrolidine-Containing Covalent Inhibitor” (Journal of Proteome Research, 2025)
